In patent US20100009934A1, “BETA ADRENERGIC RECEPTOR AGONISTS FOR THE TREATMENT OF B-CELL PROLIFERATIVE DISORDERS” (CombinatoRx, Incorporated, priority 2008, published 2010):
Values joined by “and” are separate entries in the source; they are usually repeats but may differ in a detail not shown here. Equal entries are not always repeated. Where two headings read alike, the source gives them in different places.

Experiments:
[1] = test system: Human Multiple Myeloma Cells (MM.1S); test: Antiproliferative activity on MM.1S in the presence of beta adrenergic receptor antagonist (CGP 12177A or ICI 118,551); assay type: cell-based
beta 3 vs. beta 2 = settings: Mol Phar 1994 46(2):357-63; cited from earlier work
[2] = test system: Human Multiple Myeloma Cells (MM.1S); test: Anti-proliferation assay (ATPLite, 72 hours), MM.1S
[3] = test system: Human Multiple Myeloma Cells (EJM); test: Anti-proliferation assay (ATPLite, 72 hours), EJM; settings: for Antiproliferative Activity: DEX μM r7-r15: 2.03, 0.675, 0.225, 0.075, 0.025, 0.00834, 0.00278, 0.00093, 0
MM.1S cells = test: Annexin V / propidium iodide apoptosis assay, MM.1S; assay type: cell-based, human; settings: for induction of MM.1S cell apoptosis: 72 hours (FIG. 2)
Protocol: Effects on cell viability were determined by measuring the percent of cells that were annexin V positive (an early marker for apoptosis) and by measuring the percent of cells propidium iodide (PI) positive, an indicator that cellular membranes are compromised and a marker of cell death.

RPMI-8226 cells = settings: soft agar, three weeks
Protocol: The effect of BAR agonists on cells grown in soft agar was also determined. This approach allows the measurement of long term cell viability after single agent or combination treatment. […] Cells were washed and plated in soft agar. After three weeks colonies were counted to determine cell viability.

[4] = test system: RPMI-8226 multiple myeloma (MM) xenograft; settings: Day 19; 10 mg/kg salmeterol, 0.5 mg/kg bortezomib, or both
Protocol: Dexamethasone was administered by intraperitoneal (IP) injection daily for thirty-six treatments (QD×36). Bortezomib was injected intravenously (IV) every third day for six treatments (Q3D×6).
Group 1—Vehicle (90% PBS+10% EtOH)
Significant endpoints included mean tumor growth inhibition (TGI) or regression, animal weight loss, and potential toxicity. […] Animals were implanted with cancer cells harvested from tissue culture and allowed to establish tumors in SCID mice. Treatment initiated when the mean tumor volume reached 137 mm^3 in size.

[5] = test system: Human Multiple Myeloma Cells (MM.1S)
[6] = test system: multiple myeloma tumor cells from patients; test: MTT cell viability assay, multiple myeloma patient tumor cells; settings: Homo sapiens, 48 h, read-out: tumor cell viability
Text: Tumor cells were obtained via bone marrow aspirates and affinity selected using CD138-linked magnetic beads.

[7] = test system: Human Multiple Myeloma Cells (ANBL-6); test: Anti-proliferation assay (ATPLite, 72 hours), ANBL-6
[8] = test system: human multiple myeloma cells (MM.1R); test: Antiproliferative activity of salbutamol on MM.1R after transfection of siRNA; assay type: cell-based; settings: 72 hours (FIG. 4)
Protocol: Specific gene silencing was greater than 60% as determined by real time PCR analysis 48 hours post-transfection. At 48 hours post-transfection, cells were exposed to the beta 2 receptor agonist salbutamol and incubated an additional 72 hours, and the compounds were assayed for antiproliferative activity.

[9] = test system: Human Multiple Myeloma Cells (MM.1S) cultured in the presence of BAR agonist for one month; test: Antiproliferative activity on MM.1S cultured one month in the presence of salmeterol or salbutamol; assay type: cell-based; settings: MM.1S cultured in Salbutamol for one month (final 150 nM), DEX (μM): 2.0, 0.666, 0.23, 0.074, 0.024, 0.0082, 0.00274, 0.0009, 0
Text: A recurrent problem in cancer therapy is that prolonged exposure of tumor cells to chemotherapeutic agents can generate cells resistant to agents that initially have antiproliferative or cell killing activity. […] Cells cultured for one month in the presence of BAR agonist were washed to remove drug and put into 384 well plates for 9×9 dose matrix combination screening with BAR agonists and dexamethasone.

[10] = Homo sapiens, MM1.S, read-out: percent inhibition of cell proliferation
[11] = Homo sapiens, Multiple myeloma cell, 72 h, read-out: percent inhibition of cell proliferation
[12] = Homo sapiens, MM1.S, 72 h, read-out: percent inhibition of cell proliferation
[13] = Homo sapiens, MM1.S, 72 h, read-out: percent inhibition (% I)
[14] = Homo sapiens, MM1.S, read-out: Antiproliferative Activity (inhibition of proliferation)
[15] = Homo sapiens, ANBL-6, 72 h, read-out: percent inhibition (% I)
[16] = Homo sapiens, ANBL-6, read-out: percent inhibition of cell proliferation

SMILES: CC(Cc1ccc(OCC(=O)O)cc1)NCC(O)c1cccc(Cl)c1 (stereo not drawn) [BRL37344, (4-(2-((2-(3-chlorophenyl)-2-hydroxyethyl)amino)propyl)phenoxy)acetic acid]
- inhibition at 0.01 µM [1, 10]: -8.2%
- inhibition at 0.02 µM [1, 10]: -12%
- selectivity for beta 3 vs. beta 2 (beta 3 vs. beta 2): 76 fold
- inhibition at 0.01 µM [2, 10]: 10%
- inhibition at 0.02 µM [2, 10]: 10%
- single agent antiproliferative activity ([2]; MM.1S (Table 45)): not very active

SMILES: CC(C)(C)NCC(O)c1cc(Cl)c(N)c(Cl)c1 (stereo not drawn) [Clenbuterol]
- inhibition at 0.0006 µM [2, 10]: 66%
- inhibition at 0.01 µM [2, 10]: 78%
- inhibition at […] [2, 10]: 61% and 62% and 57%

SMILES: CC(CCc1ccc(O)cc1)NCCc1ccc(O)c(O)c1 (stereo not drawn) [Dobutamine, dobutamine]
- inhibition at […] ([1]; Homo sapiens, MM1.S, in the presence of 0.91 μM ICI, 118,551, Dobutamine 0.063 μM, Dexamethasone (μM) by row: r8 0.15, r9 0.076, r10 0.038, r11 0.019, r12 0.0095, r13 0, read-out: percent inhibition of cell proliferation): 2.2%
- inhibition at […] ([1]; Homo sapiens, MM1.S, in the presence of 0.91 μM ICI, 118,551, Dobutamine 0.13 μM, Dexamethasone (μM) by row: r8 0.15, r9 0.076, r10 0.038, r11 0.019, r12 0.0095, r13 0, read-out: percent inhibition of cell proliferation): 2%
- inhibition at […] ([1]; Homo sapiens, MM1.S, in the presence of 0.91 μM ICI, 118,551, Dobutamine 0.25 μM, Dexamethasone (μM) by row: r8 0.15, r9 0.076, r10 0.038, r11 0.019, r12 0.0095, r13 0, read-out: percent inhibition of cell proliferation): -5.4%
- inhibition at […] ([1]; Homo sapiens, MM1.S, in the presence of 0.91 μM ICI, 118,551, Dobutamine 0.51 μM, Dexamethasone (μM) by row: r8 0.15, r9 0.076, r10 0.038, r11 0.019, r12 0.0095, r13 0, read-out: percent inhibition of cell proliferation): -2.8%
- inhibition at 1 µM ([1]; Homo sapiens, MM1.S, in the presence of 0.91 μM ICI, 118,551, Dobutamine 1.0 μM, Dexamethasone (μM) by row: r8 0.15, r9 0.076, r10 0.038, r11 0.019, r12 0.0095, r13 0, read-out: percent inhibition of cell proliferation): -1.8%
- inhibition at 0.0316 µM [3, 11]: -2.3%
- inhibition at 0.506 µM [3, 11]: 21.5%
- inhibition at 0.0316 µM [2, 12]: -2.04%
- inhibition at 0.506 µM [2, 12]: 22.9%
- inhibition at 1 µM [2, 10]: 28%

SMILES: Cc1ccc(OCC(O)C(C)NC(C)C)c2c1CCC2 (stereo not drawn) [ICI, 118,551]
- percent inhibition of cell proliferation ([1]; in the presence of […] ICI, 118,551, Dobutamine 0 μM, Dexamethasone (μM) by row: r8 0.15, r9 0.076, r10 0.038, r11 0.019, r12 0.0095, r13 0 (ICI alone)): 1.9%

SMILES: CCC(NC(C)C)C(O)c1ccc(O)c(O)c1 (stereo not drawn) [Isoetharine]
- Antiproliferative Activity ([3]; Isoetharine 0.000158 μM): 7.35
- Antiproliferative Activity ([3]; Isoetharine 0.000316 μM): 7.35
- Antiproliferative Activity ([3]; Isoetharine 0.00506 μM): 29

SMILES: CC(C)C[C@H](NC(=O)[C@H](Cc1ccccc1)NC(=O)c1cnccn1)B(O)O [bortezomib]
- cells annexin V positive (MM.1S cells; 2 nM bortezomib, 72 hours (FIG. 3)): 50%
- colony number per 10,000 cells plated (RPMI-8226 cells; 100 nM bortezomib for 5 hours): 39 colonies
- colony number per 10,000 cells plated (RPMI-8226 cells; 200 nM bortezomib for 5 hours): 7 colonies
- tumor growth inhibition (TGI) [4]: 38%
- inhibition [5]: 30.8% and 19.6%
- viability at 0.002 µM [6]: 80%

SMILES: COc1ccc(CC(C)NCC(O)c2ccc(O)c(NC=O)c2)cc1 (stereo not drawn) [formoterol]
- inhibition at 2.53 pM [2, 13]: 18.9%
- inhibition at 5.06 pM [2, 13]: 23.8%
- inhibition at 10.1 pM [2, 13]: 40.8%
- inhibition at 20.2 pM [2, 13]: 52.7%
- inhibition at 40.5 pM [2, 13]: 54.7%
- inhibition at 81 pM [2, 13]: 65.9%
- inhibition at 2.53 pM [2, 14]: 22.4%
- inhibition at 5.06 pM [2, 14]: 36.2%
- inhibition at 10.1 pM [2, 14]: 40.7%
- inhibition at 20.2 pM [2, 14]: 51%
- inhibition at 40.5 pM [2, 14]: 57.5%
- inhibition at 81 pM [2, 14]: 65.7%
- inhibition at 20.2 pM ([2]; Homo sapiens, MM1.S, read-out: inhibition of proliferation, single agent): 51%
- inhibition at 2.53 pM [7, 15]: 23.3%
- inhibition at 5.06 pM [7, 15]: 26.7%
- inhibition at 10.1 pM [7, 15]: 30%
- inhibition at 20.2 pM [7, 15]: 39.9%
- inhibition at 40.5 pM [7, 15]: 48.8%
- inhibition at 81 pM [7, 15]: 55.4%

SMILES: Nc1cccc2c1CN(C1CCC(=O)NC1=O)C2=O (stereo not drawn) [lenalidomide]
- induction of MM.1S cell apoptosis (MM.1S cells; 1 μM lenalidomide): negligible effects
- Antiproliferative Activity ([7]; Salmeterol 0 μM (LEN alone), LEN μM r7-r15: 4.04, 2.02, 1.01, 0.505, 0.253, 0.126, 0.0632, 0.0316, 0): 53.5 and 51.8 and 52.5 and 44.8 and 34.3 and 61.9 and 52.8 and 54.3

SMILES: CC(C)(C)NCC(O)c1ccc(O)c(CO)c1 (stereo not drawn) [salbutamol]
- inhibition of proliferation ([8]; MM.1R transfected with A2A receptor siRNA or control siRNA): 65-68%
- Antiproliferative Activity ([8]; MM.1R transfected with two different siRNA targeting the beta 2 receptor): 39-45%
- percent inhibition of cell proliferation ([9]; Salbutamol 0.00375 μM): −5.8%
- percent inhibition of cell proliferation ([9]; Salbutamol 0.00625 μM): 4.6%
- percent inhibition of cell proliferation ([9]; Salbutamol 0.0125 μM): −1.9%
- percent inhibition of cell proliferation ([9]; Salbutamol 0.05 μM): 1.5%
- percent inhibition of cell proliferation ([9]; Salbutamol 0.1 μM): 11%
- percent inhibition of cell proliferation ([9]; Salbutamol 0.2 μM): 6.8%
- inhibition at 9.1 pM [2, 10]: 10%
- inhibition at 0.00375 µM [2, 10]: 15%
- inhibition at 0.00625 µM [2, 10]: 30%
- inhibition at 0.0125 µM [2, 10]: 39%
- inhibition at 0.05 µM [2, 10]: 51%
- inhibition at 0.1 µM [2, 10]: 55%
- inhibition at 0.2 µM [2, 10]: 58%

SMILES: COc1cc2c(cc1OC)-c1cc(=Nc3c(C)cc(C)cc3C)n(C)c(=O)n1CC2 [trequinsin, 2,3,6,7-tetrahydro-9,10-dimethoxy-3-methyl-2-((2,4,6-trimethylphenyl)imino)-4H-pyrimido(6,1-a)isoquinolin-4-one]
- induction of MM.1S cell apoptosis (MM.1S cells; 2 μM trequinsin): negligible effects
- inhibition at 0.00464 µM [7, 16]: 2.91%
- inhibition at 0.125 µM [7, 16]: 4.39%
- inhibition at 0.375 µM [7, 16]: 7.82%
